Measurements as given in US11000568B2, “Means and methods for treating copper-related diseases” (HELMHOLTZ ZENTRUM MÜNCHEN—DEUTSCHES FORSCHUNGSZENTRUM FÜR …, priority 2015, dated 2021).
Entries after “also recorded” stand apart in the source; their conditions may differ. Where two headings read alike, the source gives them in different places. Numbered stars: 1 amine (or outer) side, 2 acyl side, 3 side chain; on linkers, the order of the positions; unused ones are H or OH. Bridge positions count the residues as written; N and C are the ends. Square brackets hold non-standard residues; d marks the D form. Peptide text beside a SMILES is read from it. * marks the point of attachment. X2 = O=C1OC(C2CCCN2[*:1])=NC1C(=S)NC(CO)C(=O)[*:2]; X1 = CC(C)CC(=O)C1=NC(C(=S)NCC(=O)*)C(=O)O1

Key:
LPP−/− livers = assay: Two hour LPP−/− liver perfusion; set-up: species or system rat
Experimental: LPP−/− livers (animal age 79-83 days) were perfused in a single pass manner with Krebs-Ringer bicarbonate solution containing 5 mM glucose (Beuers et al., J Biol Chem 278, 17810-17818 (2003)). The medium was gassed with 95% O2/5% CO2 and kept at 37° C. Rat livers were perfused via the portal vein (Beuers et al., log. cit.), the right lateral liver lobe was ligated and its copper content served as pre-perfusion control (Beuers et al., Hepatology 33, 1206-1216 (2001)). After cannulation of the bile duct a 20 min sample of bile was collected before the copper chelators were continuously added to the perfusion medium. Bile and outflow perfusate were collected in 10 min intervals as described elsewhere (Beuers et al., log. cit.). D-PA*HCl (20 mg/108 μmol), TETA*2HCl (20 mg/91 μmol), TTM*2NH4 (10 mg/38 μmol) and MB (40 mg/35 μmol) were each dissolved in 50 ml 0.9% NaCl, and continuously added to the perfusion medium via a perfusion pump (Perfusor, Braun, Melsungen) within 2 hours. The molar ratios of the chelators applied was MB 1:D-PA 3.1:TETA 2.6:TTM 1.1. LDH in the outflow perfusate was measured every ten minutes as described (Beuers et al., log. cit.). Control perfusions were done with Krebs-Ringer bicarbonate solution only.

LPP−/− rats = assay: Short-term in vivo treatment of LPP−/− rats; set-up: species or system rat
Experimental: (§1) LPP rats were treated with MB either by daily i.p. injections for 3 or 5 consecutive days, or twice daily i.p. injections for 8 consecutive days at a dose of 150 mg/kg bw or 4 days via the drinking water with D-PA at a dose of 100 mg/kg bw/d or TETA at 480 mg/kg bw/d, respectively (Togashi et al., Hepatology 15, 82-87 (1992)). Based on a mean copper content of 250 μg/g w.w. in Atp7b−/− rat livers at the age of treatment start (Zischka et al., log. cit.), a LPP−/− rat liver of 8 g w.w. contains around 31.5 μmol copper. Single MB doses were chosen equimolar to this copper amount. […] Assuming 40 ml water intake per day for a rat weighing 250 g this translates to a dose of 480 mg/kg bw/d. With respect to the mean liver copper content in LPP−/− rats aged 85 days, the molar ratios of the chelators applied was MB 1:D-PA 4.3:TETA 17.4, respectively. For the intravenous MB application (150 mg/kg bw), catheters connected to a PinPort™ (Instech Laboratories, Inc., USA) were inserted in the femoral vein of the rat, fixed with non-absorbable sutures and subcutaneously tunneled and exteriorized through a skin incision made between the shoulders.
Formalin-fixed, paraffin-embedded liver samples were cut into 4 μm-thick sections and either stained with hematoxylin and eosin for standard analyses or with Masson trichrome for analysis of fibrotic tissue. AST activity and bilirubin concentration in animal plasma or serum were measured with a Reflotron system (Roche).
Copper in liver homogenates, cell lysates and mitochondrial preparations were analyzed by ICP-OES (Ciros Vision, SPECTRO Analytical Instruments GmbH) after wet ashing of samples with 65% nitric acid (Zischka et al., log. cit.).
The efficiency of a short-term MB treatment schedule was assessed in LPP−/− rats at the age of liver disease onset (85-90 days). Animals received MB (i.p.) either for 3 or 5 days or the clinically used copper chelators D-PA or TETA, which were orally administered for 4-days.

LPP−/− mitochondria = assay: Chelator treatment of freshly isolated copper burdened LPP−/− mitochondria (copper extraction); set-up: species or system rat; details: 2 mM each, 30 min incubation
metallothionein = details: in vitro and in vivo experiments; cited from earlier work
[1] = MB in serum after i.p. injection; assay type: in vivo, rat
Experimental: as §1, with “For the intravenous MB application (150 mg/kg bw), catheters connected to a PinPort™ (Instech Laboratories, Inc., USA) were inserted in the femoral vein of the rat, fixed with non-absorbable sutures and subcutaneously tunneled and exteriorized through a skin incision made between the shoulders.” left out
Competitive ELISA. […] After 10 min, the plates were washed, bound antibodies against MB were detected with HRP conjugated mAbs against the rat IgG isotypes and HRP was visualized with TMB. MAbs that recognized free MB (no signal when pre-incubated with MB, positive signal in the buffer control) were further analyzed in a serial dilution of MB (1000 ng/ml to 2 ng/ml). […]

HepG2 cells = assay: Neutral red cell toxicity assay; assay type: cell-based; details: 24 hours, 0.05 to 1 mM Zinc-MB
Experimental: Neutral red cell toxicity assay was done as described elsewhere (Repetto et al., Nat Protoc 3, 1125-1131 (2008)). In brief, 2×10^4 cells were incubated for 24 hours either with medium alone (containing 2% FCS, negative control), 0.05 to
1 mM Zinc-MB, or 0.25 mM CCCP as mitochondriotoxic positive control and subsequently analyzed by neutral red.

LPP+/− rats = details: rat, in vivo
Experimental: as §1

diseased LPP−/− rats = assay: Acute rescue regimen in diseased LPP−/− rats; assay type: in vivo, rat
[2] = MB i.p. 3 or 5 days, D-PA or TETA 4 days
[3] = i.v. MB daily, five consecutive days

CSCCC(NC(=O)C1CSSCC(NC(=O)C(CO)NC(=O)CNC(=S)C2N=C(C(=O)CC(C)C)OC2=O)C(=O)NC(Cc2ccc(O)cc2)C(=O)N2CCCC2C2=NC(C(=O)O2)C(=S)NC(CO)C(=O)N1)C(=O)O (stereo not drawn) [MB] (X1-SCY[X2]CM-OH; disulfide 2-5; configuration not given here)
copper released into bile (LPP−/− livers; MB 0.7 μM, TTM 0.8 μM, D-PA 2.2 μM, TETA 1.8 μM): tenfold higher amounts of copper; also recorded: tenfold higher copper amounts into bile | liver copper content after perfusion (LPP−/− livers; vs pre-perfusion/buffer control): significantly reduced the copper content; also recorded: significantly reduces the liver copper content | histopathological liver damage (LPP−/− rats; MB 150 mg/kg bw i.p. daily 3 or 5 days, D-PA 100 mg/kg bw/d or TETA 480 mg/kg bw/d oral 4 days): strong reduction of histopathological liver damage markers | duration of normal serum AST on MB drug holiday (LPP−/− rats; MB five days, then drug holiday, zinc enriched food (1000 ppm)): at least two weeks | body weight (LPP−/− rats; MB i.p. 3 or 5 days): regained body weight | mitochondrial copper (LPP−/− rats; [2]): significant reduction at the mitochondrial copper level | serum AST levels (LPP−/− rats; [2]): markedly decreased | whole liver copper (LPP−/− rats; [2]): progressive reduction in total liver copper; also recorded: progressive but minor reduction at the whole liver copper level | serum AST (LPP−/− rats; after 5 days of MB treatment, two onset and one diseased rat): < 200 U/L | severely impaired mitochondria (type 4) in isolates (LPP−/− rats; electron microscopy, short-term treatment): almost absent | body weight (LPP−/− rats; i.v. MB 150 mg/kg bw daily, five consecutive days): All animals regained bodyweight | AST or bilirubin levels (LPP−/− rats; [3]): levels returned to normal | copper content of whole liver and purified mitochondria (LPP−/− rats; [3]): profound reduction in copper content | mitochondrial copper load (LPP−/− rats; one week: 5× MB i.p., 5× MB i.v., 16× MB i.p.): drastically reduce the mitochondrial copper load | ATP production of isolated mitochondria (LPP−/− rats; short term MB treatments): reverse this impairment | copper associated with LPP−/− mitochondria (LPP−/− mitochondria): rapidly decreased copper | removal of Cu from metallothionein (metallothionein): has been shown to remove Cu from metallothionein | time MB detectable in the serum [1]: 30 min | time MB detectable in the serum ([1]; n=2): half an hour | cytotoxic effects (neutral red) (HepG2 cells): only observed at millimolar MB concentrations | body weight, liver copper concentration, serum AST and bilirubin (LPP+/− rats): remained within the physiological range | signs of toxicity (LPP+/− rats): did not exhibit any signs of toxicity | body weight (diseased LPP−/− rats; 16 i.p. injections): regained weight | copper values (diseased LPP−/− rats; end of treatment regimen): exceptionally low copper values | serum AST and bilirubin (diseased LPP−/− rats; end of treatment regimen): normal serum AST and bilirubin | weight regained (diseased LPP−/− rats; moribund animal no. 3): 29% | survival (diseased LPP−/− rats; two daily MB i.p. injections for one week (16 in total), four rats): All animals survived
